This note sets out measurements from paper PMC12435844, “cGAS activation converges with intracellular acidification to promote STING aggregation and pyroptosis in tumor models” (The Journal of Clinical Investigation, 2025).

The target of assay [1] is T1, cyclophilin D (CypD) (Homo sapiens, UniProt P30405).
T1 construct: gene PPIF
Description: photoactive click probe in A375 cells, azide-biotin conjugation, streptavidin pull-down and Western blot. In kind it is cell-based.

The target of assay [2] is T1, cyclophilin D (CypD). Description: SPR; also FL-DSF (KD […]) and CETSA on immunoprecipitated CypD. In kind it is binding.
In a further assay the target is STING (UniProt Q86WV6). Description: co-immunoprecipitation. Particulars: reference: PERK wild type; sites T982.

T1 sequence (P30405 30-207): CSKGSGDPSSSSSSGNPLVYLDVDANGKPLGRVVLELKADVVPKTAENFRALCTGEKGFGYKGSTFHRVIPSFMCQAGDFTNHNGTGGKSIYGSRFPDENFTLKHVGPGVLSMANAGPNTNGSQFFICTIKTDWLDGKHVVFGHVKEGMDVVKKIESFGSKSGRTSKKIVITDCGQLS

For `C#CCCC1(CC(=O)OCCCCCOC(=O)c2ccc3cc(O)ccc3c2)N=N1` [DHN-P], the “photoactive click probe in A375 cells, azide-biotin conjugation, streptavidin pu” value on cyclophilin D (CypD) [1] is on record as “DHN-P could effectively pull down CypD but not other components in the mPTP complex”.
Consider `CCCCCCCCCCCCOC(=O)c1ccc2cc(O)ccc2c1` [DHN, dodecyl 6-hydroxy-2-naphthoate], for which the Kd at cyclophilin D (CypD) [2] came to 1190 ± 68 nM.
As for PERK (from UniProt Q9NZJ5) PERK T982A, the “binding against the reference” value with STING is recorded as “lost”.
